Measured values taken from article PMC7696741, “Synthesis, Characterization and Assessment of the Antioxidant Activity of Cu(II), Zn(II) and Cd(II) Complexes Derived from Scorpionate Ligands” (Molecules, 2020).
Where two headings read alike, the source gives them in different places.

Columns and labels:
[1] = read-out: SOD activity IC50, cited from earlier work
[2] = DPPH radical scavenging activity; assay type: biochemical; details: DPPH 100 μM in methanol, 37 °C, absorbance 490 nm
Method: (§1) We have carried out both enzymatic and non-enzymatic assays to evaluate the antioxidant properties of all the synthesized scorpionate complexes of Cu(II), Zn(II) and Cd(II) (1–9). All complexes were used at an initial concentration of 2.5 mM diluted in methanol.
The antioxidant properties of the compounds or control substances have been measured by DPPH, which is able to react with various natural or synthetic antioxidants. A dose response curve was plotted to determine the IC50 values, and the following formula was used to calculate the percentage of radical scavenging:Radical scavenging % = [(A0 − Ac)/A0] × 100 where A0 is the absorbance of the control sample, containing the reagents except the test substance, and Ac is the absorbance of the solution of the various complexes and of the control measured after 30 min of incubation at 37 °C. Any determination is performed in triplicate.
In order to determine the DPPH radical scavenging activity of different scorpionate complexes, the compounds or standards in methanol were diluted in series in the 96 well plate with a flat bottom. The solvent used is usually the same used to dissolve the samples. In various wells containing the compounds and standards, 200 μL of DPPH in methanol solution (100 μM) were added to reach a final volume of 250 μL in all wells. After incubation at 37 °C for 20 min, the absorbance of samples was determined at 490 nm (Multiskan JX, Thermo Labsystems Oy, Vantaa, Finland). Trolox was used as a control and was loaded into the plate with the same method and dilution of the samples.

[3] = ABTS radical scavenging activity; assay type: biochemical; details: ABTS+· in methanol, 10 min dark, room temperature, absorbance 630 nm
Method: as §1
Total antioxidant activity was assessed as a measure of radical scavenging activity of the complexes examined against the cationic radical ABTS^+. The method is valid for both hydrophilic and hydrophobic antioxidants. The working solution is produced by the oxidation of an initial solution of ABTS, which is oxidized to ABTS^+· through the reaction with K2S2O8 (2.45 mM) and left in the dark for 12 h. After incubation, the ABTS^+· solution is diluted with methanol to obtain an absorbance of 0.706 ± 0.001 units at 734 nm, which is used as a solution for the analysis of scavenger activity.
Radical scavenging ability is measured with a modified method described initially by Re et al. for the application of a microplate 96 wells. Compounds or standards in methanol were diluted in series in the 96 well plate, as previously described. Trolox was used as a control and was loaded into the plate with the same method and dilution of the samples. The reaction is started with the addition of 200 μL of the ABTS^+· solution (final volume in the wells, 250 μL). The reaction mixture is allowed to stand in the dark for 10 min at room temperature, and the absorbance at 630 nm is measured (Multiskan JX, Thermo Labsystems Oy, Vantaa, Finland). The radical scavenging activity is estimated through the absorbance decrease at 630 nm and can be expressed as the equivalent Trolox.

[4] = Superoxide radicals scavenging activity (PMS-NADH/NBT system); assay type: biochemical; details: for IC50: PMS-NADH/NBT, Tris-HCl pH 8.0, absorbance 560 nm, read-out: Oxygen Species Radicals IC50, O2^−
Method: as §1
The scavenging activity of superoxide radicals was determined by the method of Liu and Ng, slightly modified by Kang and Lee. Superoxide radicals are generated in the phenazine methosulfate-nicotinamide adenine dinucleotide (PMS-NAD) system, responsible for the oxidation of NADH (reduced form of NAD) that was analyzed by reducing the nitro blue tetrazolium chloride NBT in a microplate assay.
In a 96 well plate, samples or control were subjected to a serial dilution with 20 mM Tris-HCl (pH 8.0). Superoxide radicals are generated by adding in 200 μL of 20 mM Tris-HCl (pH 8.0), containing 78 mM NADH, NBT 50 mM to each well and 10 μL are added to the various samples of PMS 10 mM. The reaction between superoxide radicals and NBT develops a blue color, whose intensity decreases proportionally in the presence of the antioxidant compound. The change in absorbance in the various wells is measured at 560 nm with a microplate reader (Molecular Devices, Sunnyvale, CA, USA). L-ascorbate was used as a positive control. The interaction relationship with the superoxide radical (%) was calculated using the following formula:superoxide radical (%) = ((A − A1)/A) × 100 where A is the absorbance of the positive control, and A1 is the absorbance of the test samples.

[5] = Hydroxyl radicals scavenging activity (L-ascorbic acid-CuSO4 / cytochrome c); assay type: biochemical; details: L-ascorbic acid-CuSO4, cytochrome c oxidation, pH 7.4, 550 nm; read-out: Oxygen Species Radicals IC50, OH
Method: as §1
The scavenging activity of superoxide radicals was determined by the method of Liu and Ng, slightly modified by Kang and Lee. Hydroxyl radicals, generated in the L-ascorbic acid-CuSO4 system, with the reduction of Cu^2+, were analyzed by the oxidation of cytochrome c in 96 microplate wells. The hydroxyl radicals were generated in 200 μL of 10 mM buffer sodium phosphate (pH 7.4), containing […], 12 μM reduced cytochrome c and the samples to be analyzed in different concentrations. The reduction of cytochrome c is produced with the addition of an excess of dithiothreitol to a solution of cytochrome c and followed by Sephadex G-15 chromatography (bed volume, 10 mL) to remove the excess of dithiothreitol.
The compounds or standards in methanol were diluted in series in a 96-well flat-bottomed plate. Stock solution was prepared in phosphate buffer (pH 7.4) containing 100 μM L-ascorbic acid and 100 μM CuSO4. Then, 200 μL of this solution was added to each well and, finally, 10 μL of 120 μM reduced cytochrome c, was added to the plate and was left to incubate for 20 min at room temperature. The change in absorbance, caused by the oxidation of cytochrome c, was measured at 550 nm with a microplate reader (Molecular Devices, Sunnyvale, CA, USA). A thiourea solution (500 μM) was used as a positive control. The scavenging activity of hydroxyl radicals of 500 […] solution of thiourea was taken as 100%. The scavenging activity of hydroxyl radicals has been calculated using the following formula:hydroxyl scavenging radicals (%) = (A − A0)/(AT − A0) × 100 where A is the absorbance of the samples, and AT and A0 is the absorbance of the thiourea and the control, respectively.

[6] = Hydrogen peroxide radicals scavenging activity; assay type: biochemical; details: hydrogen peroxide in PBS, 10 min, 230 nm; read-out: Oxygen Species Radicals IC50, OOH
Method: as §1
In order to determine the scavenging activity of H2O2 of different complexes or standards in methanol, the compounds were diluted in series in a 96-well flat-bottom plate with the same procedure used in previous assays. Then, 200 μL of peroxide solution was added to the various wells hydrogen in PBS (final volume, 250 μL). After 10 min of incubation, the absorbance was measured at 230 nm with a microplate reader.

[7] = Nitric oxide scavenging activity (sodium nitroprusside / Griess reagent); assay type: biochemical; details: sodium nitroprusside in PBS, light, 150 min, 577 nm, read-out: Oxygen Species Radicals IC50, NO
Method: as §1
In order to determine the scavenging activity of the metal complexes against NO radicals, samples were added to a 96-well plate dish with a flat bottom, and were serially diluted by the same procedure used in the previous assays. In all wells, 100 μL of PBS and 50 μL of sodium nitroprusside dissolved in saline phosphate buffer (PBS), were added. The plate with the samples was incubated in the presence of light at room temperature for 150 min. Finally, an equal volume of 50 μL of Griess reagent was added to each well in order to measure the nitrite content. The plate was incubated at room temperature for 10 min until chromophore formation, and the absorbance was measured at 577 nm in a microplate reader (Molecular Devices, Sunnyvale, CA, USA).

[8] = Solubility of the isolated complexes; assay type: physicochemical; details: for Solubility in chlorinated solvents, alcohols, acetonitrile, dimethylsulfoxide and dimethylformamide: organic solvents as listed
[9] = Air and moisture stability of the isolated powders; assay type: physicochemical; details: pure powders
[10] = Overall evaluation of scavenging (antioxidant) activity, all radical assays; assay type: biochemical; details: conclusions, all radical assays together
Method: as §1

Row | Molecule | IC50 ([1]; reported scorpionate complex ref 21) [mM] | IC50 [2] [mM] | IC50 [3] [mM] | IC50 [4] [mM] | IC50 [5] [mM] | IC50 [6] [mM] | IC50 [7] [mM] | Solubility in most organic solvents [8] | Solubility in chlorinated solvents, alcohols, acetonitrile, dimethylsulfoxide and dimethylformamide [8] | Solubility in water [8] | Stability to air and moisture [9] | IC50 ([1]; native enzyme, literature value ref 47) [mM] | Antioxidant (scavenging) activity, overall verdict [10] | SOD-mimic activity, times less than native bovine Cu-Zn-SOD ([4]; ratio of superoxide IC50 to native bovine Cu-Zn-SOD (IC50 = 0.48 μM)) [times] | IC50 ([1]; reported scorpionate complex ref 20) [mM]
1 | O=C(O)c1ccc(P(c2ccccc2)c2ccccc2)cc1.O=C(O)c1ccc(P(c2ccccc2)c2ccccc2)cc1.[Cu+].c1cnn([B-](n2cccn2)(n2cccn2)n2cccn2)c1 [[Cu(PPh2(4-C6H4COOH))2(pzTp)]] | 0.0046 | – | – | – | – | – | – | – | – | – | – | – | – | – | –
2 | Cc1ccc2c(cnn2[BH-](n2ncc3cc(C)ccc32)n2ncc3cc(C)ccc32)c1.Cc1ccc2c(cnn2[BH-](n2ncc3cc(C)ccc32)n2ncc3cc(C)ccc32)c1.[Cd+2] [Complex 7, [Cd(Tp^4Bo,5Me)2]] | – | > 5 | > 5 | > 5 | > 5 | > 5 | > 5 | good solubility | soluble | insoluble | air and moisture stable | – | – | – | –
3 | native bovine Cu-Zn-SOD: native bovine copper-zinc superoxide dismutase enzyme | – | – | – | – | – | – | – | – | – | – | – | 0.00048 | – | – | –
4 | CC(C)(C)c1cc[nH]n1.CC(C)(C)c1ccn([BH2-]n2ccc(C(C)(C)C)n2)n1.[Cl][Cd+] [Complex 9, [Cd(Bp^t^Bu)(Hpz^t^Bu)Cl]] | – | > 5 | 0.151 ± 0.0042 | > 5 | > 5 | > 5 | > 5 | – | soluble | insoluble | – | – | moderate antioxidant activity | – | –
5 | [Zn(Tp^t^Bu)Cl] [Complex 6] | – | > 5 | 0.0579 ± 0.0034 | > 5 | > 5 | > 5 | > 5 | – | soluble | insoluble | – | – | – | – | –
6 | Cc1c(C)c2c(c(C)c1O)CCC(C)(C(=O)O)O2 (stereo not shown) [Trolox, reference compound] | – | 0.0199 ± 0.0015 | 0.00401 ± 0.0007 | > 5 | > 5 | > 5 | > 5 | – | – | – | – | – | – | – | –
7 | CC(C)(C)c1cc[nH]n1.CC(C)(C)c1cc[nH]n1.CC(C)(C)c1cc[nH]n1.[Cl][Cu][Cl] [Complex 3, [Cu(Hpz^t^Bu)3Cl2]] | – | 0.0766 ± 0.0025 | 0.0972 ± 0.0038 | 0.233 ± 0.004 | > 5 | > 5 | > 5 | – | soluble | insoluble | – | – | moderate antioxidant activity | 500 | –
8 | Cc1ccc2c(cnn2[BH-](n2ncc3cc(C)ccc32)n2ncc3cc(C)ccc32)c1.Cc1ccc2c(cnn2[BH-](n2ncc3cc(C)ccc32)n2ncc3cc(C)ccc32)c1.ClCCl.[Zn+2] [Complex 4, [Zn(Tp^4Bo,5Me)2]⋅CH2Cl2] | – | – | – | – | – | – | – | good solubility | soluble | insoluble | air and moisture stable | – | – | – | –
9 | Brc1cnn([BH-](n2cc(Br)cn2)n2cc(Br)cn2)c1.O=C(O)c1ccc(P(c2ccccc2)c2ccccc2)cc1.[Cu+] [[Cu(PPh2(4-C6H4COOH))(Tp^4Br)]] | – | – | – | – | – | – | – | – | – | – | – | – | – | – | 0.0062
10 | ClCCl.ClCCl.ClCCl.ClCCl.[Zn+2].c1ccc2c(c1)CCc1cn([BH-](n3cc4c(n3)-c3ccccc3CC4)n3cc4c(n3)-c3ccccc3CC4)nc1-2.c1ccc2c(c1)CCc1cn([BH-](n3cc4c(n3)-c3ccccc3CC4)n3cc4c(n3)-c3ccccc3CC4)nc1-2 [Complex 5, [Zn(Tp^a)2]⋅4CH2Cl2] | – | – | – | – | – | – | – | good solubility | soluble | insoluble | air and moisture stable | – | moderate antioxidant activity | – | –
